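Following 48 hours of exposure in 96-well plates, responses at five concentrations were used to interpolate endpoints linearly. GI50 marks 50% less growth.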 Calls of active or inactive are those of the source. No stated cut-off is given here; in the data, active = GI50 up to about 1.1 µM and inactive = higher.
Legend:
Test in all cases: inhibition of tumour cell growth, NCI panel, 48 h
SK-OV-3 = system: SK-OV-3
DMS-273 = system: DMS-273
HOP-62 = system: HOP-62
U-251 = system: U-251
EKVX = system: EKVX
786-0 = system: 786-0
UACC-257 = system: UACC-257
K562 = system: K562
SNB-19 = system: SNB-19
SF-268 = system: SF-268
OVCAR-5 = system: OVCAR-5
HOP-92 = system: HOP-92
NCI-H23 = system: NCI-H23
HCT-15 = system: HCT-15
SN12C = system: SN12C
HCC 2998 = system: HCC 2998
DMS-114 = system: DMS-114
KM12 = system: KM12
SR = system: SR
IGROV-1 = system: IGROV-1
UO-31 = system: UO-31
NCI-H226 = system: NCI-H226
MOLT-4 = system: MOLT-4
COLO 205 = system: COLO 205
LXFL 529 = system: LXFL 529
HCT-116 = system: HCT-116
SNB-75 = system: SNB-75
HOP-18 = system: HOP-18
CAKI-1 = system: CAKI-1
Malme-3M = system: Malme-3M
SF-539 = system: SF-539
A498 = system: A498
UACC-62 = system: UACC-62
OVCAR-8 = system: OVCAR-8
M19-MEL = system: M19-MEL
SK-MEL-5 = system: SK-MEL-5
HL-60 = system: HL-60
A549 = system: A549
KM-20L2 = system: KM-20L2
LOX IMVI = system: LOX IMVI
M14 = system: M14
SK-MEL-2 = system: SK-MEL-2
OVCAR-4 = system: OVCAR-4
HT-29 = system: HT-29
SK-MEL-28 = system: SK-MEL-28
SNB-78 = system: SNB-78
NCI-H522 = system: NCI-H522
DLD-1 = system: DLD-1
TK-10 = system: TK-10
SW-620 = system: SW-620
RXF 393 = system: RXF 393
SF-295 = system: SF-295
ACHN = system: ACHN
NCI-H460 = system: NCI-H460
OVCAR-3 = system: OVCAR-3

**Q.** `CC1CC2C3CCC4=CC(=O)C=CC4(C)C3(F)C(O)CC2(C)C1(O)C(=O)CO.Cc1cc(NS(=O)(=O)c2ccc(/N=N\c3cc(/N=N/c4ccc(S(=O)(=O)Nc5cc(C)nc(C)n5)cc4)c(OC(=O)C(Cl)Cl)c4cccc(NC(=O)C(Cl)Cl)c34)cc2)nc(C)n1` was tested. Which GI50 (SK-OV-3) did it give?
**A.** > 100 µM (inactive)

**Q.** And the GI50 (DMS-273)?
**A.** 21.5 µM (inactive)

**Q.** What about the GI50 (HOP-62) of the same compound?
**A.** 35.2 µM (inactive)

**Q.** And the GI50 (U-251)?
**A.** 18 µM (inactive)

**Q.** What about the GI50 (EKVX) of the same compound?
**A.** 26.2 µM (inactive)

**Q.** And the GI50 (786-0)?
**A.** 18 µM (inactive)

**Q.** What about the GI50 (UACC-257) of the same compound?
**A.** 29.9 µM (inactive)

**Q.** And the GI50 (K562)?
**A.** 30.6 µM (inactive)

**Q.** What about the GI50 (SNB-19) of the same compound?
**A.** 16.5 µM (inactive)

**Q.** What about the GI50 (SF-268) of the same compound?
**A.** 26.4 µM (inactive)

**Q.** What about the GI50 (OVCAR-5) of the same compound?
**A.** 16.6 µM (inactive)

**Q.** And the GI50 (HOP-92)?
**A.** 32.5 µM (inactive)

**Q.** What about the GI50 (NCI-H23) of the same compound?
**A.** 30.3 µM (inactive)

**Q.** What about the GI50 (HCT-15) of the same compound?
**A.** 15.6 µM

**Q.** And the GI50 (SN12C)?
**A.** 12.6 µM (inactive)

**Q.** And the GI50 (HCC 2998)?
**A.** 18.4 µM (inactive)

**Q.** What about the GI50 (DMS-114) of the same compound?
**A.** 27.5 µM (inactive)

**Q.** What about the GI50 (KM12) of the same compound?
**A.** 16.6 µM (inactive)

**Q.** And the GI50 (SR)?
**A.** 25.4 µM (inactive)

**Q.** And the GI50 (IGROV-1)?
**A.** 24.5 µM (inactive)

**Q.** And the GI50 (UO-31)?
**A.** 19.8 µM (inactive)

**Q.** And the GI50 (NCI-H226)?
**A.** 22.2 µM (inactive)

**Q.** And the GI50 (MOLT-4)?
**A.** 27.4 µM (inactive)

**Q.** What about the GI50 (COLO 205) of the same compound?
**A.** 28.2 µM (inactive)

**Q.** What about the GI50 (LXFL 529) of the same compound?
**A.** 10 µM (inactive)

**Q.** And the GI50 (HCT-116)?
**A.** 34.3 µM (inactive)

**Q.** And the GI50 (SNB-75)?
**A.** 42.8 µM (inactive)

**Q.** What about the GI50 (HOP-18) of the same compound?
**A.** 18.8 µM (inactive)

**Q.** And the GI50 (CAKI-1)?
**A.** 31.2 µM (inactive)

**Q.** And the GI50 (Malme-3M)?
**A.** 20.6 µM (inactive)

**Q.** What about the GI50 (SF-539) of the same compound?
**A.** 20.9 µM (inactive)

**Q.** And the GI50 (A498)?
**A.** 27.5 µM (inactive)

**Q.** And the GI50 (UACC-62)?
**A.** 23.9 µM (inactive)

**Q.** And the GI50 (OVCAR-8)?
**A.** 22.9 µM (inactive)

**Q.** What about the GI50 (M19-MEL) of the same compound?
**A.** 30.8 µM (inactive)

**Q.** And the GI50 (SK-MEL-5)?
**A.** 2.97 µM (inactive)

**Q.** And the GI50 (HL-60)?
**A.** 16 µM (inactive)

**Q.** And the GI50 (A549)?
**A.** 27 µM (inactive)

**Q.** And the GI50 (KM-20L2)?
**A.** 25.6 µM (inactive)

**Q.** What about the GI50 (LOX IMVI) of the same compound?
**A.** 19.2 µM (inactive)

**Q.** What about the GI50 (M14) of the same compound?
**A.** 28.9 µM (inactive)

**Q.** And the GI50 (SK-MEL-2)?
**A.** 29.4 µM (inactive)

**Q.** And the GI50 (OVCAR-4)?
**A.** 19.8 µM (inactive)

**Q.** And the GI50 (HT-29)?
**A.** 24.4 µM (inactive)

**Q.** What about the GI50 (SK-MEL-28) of the same compound?
**A.** 27 µM (inactive)

**Q.** And the GI50 (SNB-78)?
**A.** 33.1 µM (inactive)

**Q.** What about the GI50 (NCI-H522) of the same compound?
**A.** 15 µM (inactive)

**Q.** And the GI50 (DLD-1)?
**A.** 18 µM (inactive)

**Q.** What about the GI50 (TK-10) of the same compound?
**A.** 42.7 µM (inactive)

**Q.** And the GI50 (SW-620)?
**A.** 20.8 µM (inactive)

**Q.** And the GI50 (RXF 393)?
**A.** 23.9 µM (inactive)

**Q.** What about the GI50 (SF-295) of the same compound?
**A.** 28.2 µM (inactive)

**Q.** And the GI50 (ACHN)?
**A.** 19.5 µM (inactive)

**Q.** And the GI50 (NCI-H460)?
**A.** 25.9 µM (inactive)

**Q.** And the GI50 (OVCAR-3)?
**A.** 18.6 µM (inactive)

From ChEMBL document CHEMBL1201862, “PubChem BioAssay data set” (2004)
